Assay results: ChEMBL document CHEMBL3044788, “α-(Substituted-phenoxyacetoxy)-α-heterocyclylmethylphosphonates: synthesis, herbicidal activity, inhibition on pyruvate dehydrogenase complex (PDHc), and application as postemergent herbicide against broadleaf weeds” (J Agric Food Chem, 2013)
Where “and” joins values, the source holds several entries; their conditions need not be identical. Identical values can stand only once.

Experiments:
[1] = test system: Brassica juncea; assay: Herbicidal activity against two to three-leaf stage Brassica juncea assessed as inhibition of plant growth at 450 g/ha in greenhouse by post-emergence herbicidal activity assay; assay type: functional; settings: read-out: GI
[2] = test system: Amaranthus retroflexus; assay: Herbicidal activity against 2 to 3 leaf stage Amaranthus retroflexus assessed as inhibition of plant growth at 450 g/ha in greenhouse by postemergence herbicidal activity assay; assay type: functional; settings: post-emergence, read-out: GI
[3] = test system: Oryza sativa; assay: Herbicidal activity against two to three-leaf stage Oryza sativa (rice) assessed as inhibition of plant growth at 450 g/ha in greenhouse by postemergence herbicidal activity assay; assay type: organism-based; settings: in vivo, other
[4] = test system: Pisum sativum; assay: Herbicidal activity against 2 to 3 leaf stage Pisum sativum assessed as inhibition of plant growth at 450 g/ha in greenhouse by postemergence herbicidal activity assay; assay type: functional; settings: Lathyrus oleraceus, post-emergence; read-out: GI
[5] = test system: Echinochloa crus-galli; assay: Herbicidal activity against 2 to 3 leaf stage Echinochloa crus-galli (barnyard grass) assessed as inhibition of plant growth at 450 g/ha in greenhouse by postemergence herbicidal activity assay; assay type: functional; settings: for inhibition of growth at 450 g/ha: Echinochloa crus-galli, post-emergence, read-out: GI
[6] = test system: Brassica rapa subsp. oleifera; assay: Herbicidal activity against Brassica rapa subsp. oleifera assessed as inhibition of rape root growth at 450 g/ha by pre-emergence herbicidal activity assay; assay type: functional; settings: read-out: GI
[7] = Inhibition of Oryza sativa (rice) PDHc by spectrophotometric assay
[8] = target: T1, Pyruvate dehydrogenase complex (Pisum sativum, UniProt P52902+P52904); assay: Inhibition of Pisum sativum (pea) PDHc by spectrophotometric assay; assay type: protein-complex assay, Lathyrus oleraceus
T1 sequence (P52902 whole entry): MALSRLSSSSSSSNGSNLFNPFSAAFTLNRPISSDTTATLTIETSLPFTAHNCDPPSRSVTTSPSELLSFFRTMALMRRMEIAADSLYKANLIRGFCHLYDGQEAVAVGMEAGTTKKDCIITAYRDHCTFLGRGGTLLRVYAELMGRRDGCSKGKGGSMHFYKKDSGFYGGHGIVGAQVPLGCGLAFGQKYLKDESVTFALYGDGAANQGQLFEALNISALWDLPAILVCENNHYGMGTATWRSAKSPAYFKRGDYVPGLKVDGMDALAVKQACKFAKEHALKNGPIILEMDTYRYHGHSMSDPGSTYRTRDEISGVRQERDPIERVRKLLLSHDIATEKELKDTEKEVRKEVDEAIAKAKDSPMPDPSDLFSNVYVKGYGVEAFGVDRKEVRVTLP
T1 sequence (P52904 whole entry): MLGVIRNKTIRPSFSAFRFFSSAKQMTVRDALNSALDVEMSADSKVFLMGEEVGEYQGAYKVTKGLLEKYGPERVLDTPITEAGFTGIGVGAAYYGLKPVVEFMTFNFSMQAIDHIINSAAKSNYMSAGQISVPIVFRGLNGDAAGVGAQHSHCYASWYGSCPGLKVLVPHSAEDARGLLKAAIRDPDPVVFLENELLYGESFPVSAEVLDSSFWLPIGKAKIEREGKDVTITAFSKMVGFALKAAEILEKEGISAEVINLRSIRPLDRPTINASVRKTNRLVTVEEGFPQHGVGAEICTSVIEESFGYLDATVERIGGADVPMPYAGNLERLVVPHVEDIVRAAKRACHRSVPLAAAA

[9] = test system: Brassica rapa subsp. oleifera; assay: Herbicidal activity against Brassica rapa subsp. oleifera assessed as inhibition of rape root growth; assay type: functional, organism-based
[10] = test system: Brassica rapa subsp. oleifera; assay: Herbicidal activity against Brassica rapa subsp. oleifera assessed as inhibition of rape root growth at 450 g/ha by postemergence herbicidal activity assay; assay type: functional; settings: post-emergence, read-out: GI
[11] = test system: Abutilon theophrasti; assay: Herbicidal activity against two to three-leaf stage Abutilon theophrasti (velvetleaf) assessed as inhibition of plant growth at 450 g/ha in greenhouse by post-emergence herbicidal activity assay; assay type: functional; settings: read-out: GI
[12] = test system: Eclipta prostrata; assay: Herbicidal activity against two to three-leaf stage Eclipta prostrata assessed as inhibition of plant growth at 150 g/ha in greenhouse by post-emergence herbicidal activity assay; assay type: functional; settings: read-out: GI
[13] = test system: Abutilon theophrasti; assay: Herbicidal activity against two to three-leaf stage Abutilon theophrasti (velvetleaf) assessed as inhibition of plant growth at 150 g/ha in greenhouse by post-emergence herbicidal activity assay; assay type: functional; settings: read-out: GI
[14] = test system: Eclipta prostrata; assay: Herbicidal activity against two to three-leaf stage Eclipta prostrata assessed as inhibition of plant growth at 450 g/ha in greenhouse by post-emergence herbicidal activity assay; assay type: functional; settings: read-out: GI
[15] = test system: Brassica rapa subsp. oleifera; assay: Herbicidal activity against two to three-leaf stage Brassica rapa subsp. oleifera assessed as inhibition of plant growth at 150 g/ha in greenhouse by postemergence herbicidal activity assay; assay type: functional; settings: post-emergence, read-out: GI
[16] = test system: Brassica rapa subsp. oleifera; assay: Herbicidal activity against two to three-leaf stage Brassica rapa subsp. oleifera assessed as inhibition of plant growth at 450 g/ha in greenhouse by postemergence herbicidal activity assay; assay type: functional; settings: post-emergence, read-out: GI
[17] = test system: Amaranthus retroflexus; assay: Herbicidal activity against 2 to 3 leaf stage Amaranthus retroflexus assessed as inhibition of plant growth at 150 g/ha in greenhouse by postemergence herbicidal activity assay; assay type: functional; settings: post-emergence, read-out: GI

| Compound | inhibition of growth at 450 g/ha [1] | inhibition of growth at 450 g/ha [2] | growth inhibition (GI) [3] | inhibition of growth at 450 g/ha [4] | inhibition of growth at 450 g/ha [5] | inhibition of growth at 450 g/ha [6] | IC50 [7] | IC50 [8] | IC50 [9] | inhibition of growth at 450 g/ha [10] | inhibition of growth at 450 g/ha [11] | inhibition of growth at 150 g/ha [12] | inhibition of growth at 150 g/ha [13] | inhibition of growth at 450 g/ha [14] | inhibition of growth at 150 g/ha [15] | inhibition of growth at 450 g/ha [16] | inhibition of growth at 150 g/ha [17] | growth inhibition (GI) [5] |
| --- | --- | --- | --- | --- | --- | --- | --- | --- | --- | --- | --- | --- | --- | --- | --- | --- | --- | --- |
| COP(=O)([O-])C(OC(=O)COc1ccc(Cl)cc1Cl)c1ccco1.[Na+] (stereo not given) | 92.5% | 100% | 45% | 98% | 50% | 96% | 41.1 µM | 6.96 µM | 0.0396 µM | 95% |  |  |  |  |  |  |  |  |
| COP(=O)(OC)C(OC(=O)COc1ccc(Cl)cc1)c1cccs1 (stereo not given) |  | 80% |  |  |  |  |  |  |  |  | 85% | 70% | 70% | 30% | 70% | 90% | 70% |  |
| COP(=O)(OC)C(OC(=O)COc1ccc(Cl)c(C)c1)c1cccs1 (stereo not given) |  | 60% |  |  |  |  |  |  |  |  | 60% | 50% | 0% | 70% | 0% | 60% | 50% |  |
| COP(=O)([O-])COC(=O)COc1ccc(Cl)cc1Cl.[Na+] | 93% | 92% | 12% | 52.5% | 10% |  | 29.1 µM |  |  |  |  |  |  |  |  |  |  |  |
| CCC(OC(=O)COc1ccc(Cl)cc1Cl)P(=O)([O-])OC.[Na+] (stereo not given) | 94.5% | 97% | 27% | 90% | 30% |  | 18.9 µM |  |  |  |  |  |  |  |  |  |  |  |
| CCCC(OC(=O)COc1ccc(Cl)cc1Cl)P(=O)([O-])OC.[Na+] (stereo not given) | 96% | 97% | 22% | 77.5% | 45% |  | 3.26 µM |  |  |  |  |  |  |  |  |  |  |  |
| COP(=O)([O-])C(C)OC(=O)COc1ccc(Cl)cc1Cl.[Na+] (stereo not given) | 100% | 98% | 27% | 71.5% | 50% |  | 0.29 µM |  |  |  |  |  |  |  |  |  |  |  |
| COP(=O)(OC)C(OC(=O)COc1cccc(C)c1C)c1cccs1 (stereo not given) |  | 40% |  |  |  |  |  |  |  |  | 0% | 0% | 0% | 70% | 0% | 0% | 40% |  |
| COP(=O)(OC)C(OC(=O)COc1ccc(Br)cc1)c1cccs1 (stereo not given) |  | 60% |  |  |  |  |  |  |  |  | 70% | 60% | 50% | 60% | 70% | 75% | 50% |  |
| COP(=O)(OC)C(OC(=O)COc1ccccc1Cl)c1cccs1 (stereo not given) |  | 50% |  |  |  |  |  |  |  |  | 40% | 0% | 0% | 85% | 0% | 30% | 0% |  |
| COP(=O)(OC)C(OC(=O)COc1cccc(C(F)(F)F)c1)c1ccccn1 (stereo not given) | 60% | 77.5% | 0% | 0% | 0% |  |  | > 2300 µM |  |  |  |  |  |  |  |  |  |  |
| COP(=O)(OC)C(O)c1ccco1 (stereo not given) |  |  |  |  |  | 25% |  |  | > 4670 µM | 20% |  |  |  |  |  |  |  |  |
| COP(=O)(OC)C(=O)c1ccco1 |  |  |  |  |  | 56% |  |  | 237 µM | 50% |  |  |  |  |  |  |  |  |
| COP(=O)(O)C(O)c1ccco1 (stereo not given) |  | 0% |  | 0% | 17.5% | 23% |  | > 4670 µM | > 4670 µM | 20% |  |  |  |  |  |  |  |  |
| COP(=O)(O)C(=O)c1ccco1 |  | 25% |  | 35% | 25% | 20% |  | 389 µM | 3240 µM | 30% |  |  |  |  |  |  |  |  |
| O=C(O)COc1ccc(Cl)cc1Cl [2,4-DICHLOROPHENOXYACETIC ACID] | 100% | 100% |  | 97.5% | 35% | 98% |  | > 4530 µM | 0.0556 µM | 90% |  | 90% | 93% |  | 92.5% |  | 92% |  |
| COP(=O)(OC)C(C)OC(=O)COc1ccc(Cl)cc1Cl (stereo not given) [CLACYFOS] | 100% | 100% | 0% | 97.5% |  | 96% | 867 µM |  | 0.0344 µM | 98% | 100% | 90% | 95% | 0% | 92% | 100% | 91% | 35% and 100% |
| COP(=O)(OC)C(C)O (stereo not given) [DIMETHYL 1-HYDROXYETHYLPHOSPHONATE] |  |  |  |  |  | 36% |  |  | 2400 µM | 30% |  |  |  |  |  |  |  |  |
| COP(=O)(OC)C(C)=O [DIMETHYL ACETYLPHOSPHONATE] |  |  |  |  |  | 34% |  |  | 1880 µM | 45% |  |  |  |  |  |  |  |  |
| COP(=O)(O)C(C)=O [SODIUM METHYL ACETYLPHOSPHONATE] |  |  |  |  |  |  |  | 70 µM |  |  |  |  |  |  |  |  |  |  |
